Values quoted from earlier work in patent US20070269478A1, “METHOD OF PREPARING ACELLULARIZED, BIOCOMPATIBLE, IMPLANTABLE MATERIAL” (priority 2006, published 2007).

Experiments:
[1] = α-amino acids with acidic side chains
[2] = for pK2: amino group, glutamic acid vs. γ-aminobutyric; for pK5: primary amine basicity, glycine vs. metilamine

Row | SMILES | pH above which there is an excess of negative charge [1] | pK2 [2] | pK5 [2]
1 | N[C@@H](CCC(=O)O)C(=O)O [glutamic acid] | ~4.2 | 9.76 | –
2 | NCC(=O)O [glycine] | – | – | 9.60
3 | N[C@@H](CCS(=O)(=O)O)C(=O)O [homocysteic acid] | ~2.2 | – | –
4 | CN [metilamine] | – | – | 10.65
5 | NCCCC(=O)O [γ-aminobutyric, 4-aminobutanoic acid] | – | 10.56 | –
